The structures appear in SMILES notation. pIC50: −log10 of the molar value. Calls of active or inactive are those of the source. No cut-off for these calls is given here.

Assay [1] is described as follows: Inhibition of chymotrypsin.
Assay [2] in a line: Inhibition of trypsin at 45.5 uM.
Assay [3] addresses Prothrombin (Homo sapiens) (UniProt P00734). The assay is described as follows: Inhibition of thrombin at 45.5 uM.
A short description of assay [4]: Inhibition of elastase at 45.5 uM.
A short description of assay [5]: Inhibition of trypsin.
In assay [6] the target is Prothrombin (Homo sapiens) (UniProt P00734). The assay can be described thus: Induction of thrombin activity at 45.5 uM.
A short description of assay [7]: Inhibition of chymotrypsin at 45.5 uM.
Assay [8] addresses T1, Aminopeptidase N (Bos taurus) (UniProt P79098).
T1 sequence (whole entry): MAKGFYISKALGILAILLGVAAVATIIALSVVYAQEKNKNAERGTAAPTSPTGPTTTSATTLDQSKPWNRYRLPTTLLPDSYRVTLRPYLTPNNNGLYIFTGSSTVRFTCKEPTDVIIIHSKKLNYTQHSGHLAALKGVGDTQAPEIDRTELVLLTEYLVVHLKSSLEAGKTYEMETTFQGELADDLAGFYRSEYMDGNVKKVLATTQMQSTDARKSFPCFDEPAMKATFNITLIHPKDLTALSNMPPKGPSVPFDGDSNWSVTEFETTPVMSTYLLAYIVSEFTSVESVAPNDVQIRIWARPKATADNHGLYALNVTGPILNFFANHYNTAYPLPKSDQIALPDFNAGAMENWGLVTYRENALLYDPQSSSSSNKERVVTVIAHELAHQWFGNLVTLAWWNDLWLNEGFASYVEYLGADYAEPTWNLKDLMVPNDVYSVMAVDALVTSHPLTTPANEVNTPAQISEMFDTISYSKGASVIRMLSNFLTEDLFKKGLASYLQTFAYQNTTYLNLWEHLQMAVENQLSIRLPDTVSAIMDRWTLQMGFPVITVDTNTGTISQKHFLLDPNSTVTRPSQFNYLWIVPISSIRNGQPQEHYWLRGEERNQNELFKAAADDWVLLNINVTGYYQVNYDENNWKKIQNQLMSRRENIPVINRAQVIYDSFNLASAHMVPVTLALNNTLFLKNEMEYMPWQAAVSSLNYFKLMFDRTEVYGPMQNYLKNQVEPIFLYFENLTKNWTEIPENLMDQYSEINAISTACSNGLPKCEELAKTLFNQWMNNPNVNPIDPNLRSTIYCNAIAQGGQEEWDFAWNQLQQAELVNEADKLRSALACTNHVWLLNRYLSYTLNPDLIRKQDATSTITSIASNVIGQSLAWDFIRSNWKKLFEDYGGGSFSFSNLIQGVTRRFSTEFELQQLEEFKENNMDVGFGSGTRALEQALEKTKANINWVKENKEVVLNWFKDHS
The assay can be described thus: Inhibition of bovine amino peptidase N at 45.5 uM.

Another assay concerns HCT-116. The assay is described as follows: Cytotoxicity against human HCT116 cells at 1.6 uM. Type of assay: functional, cell-based.

By pIC50 is commonly meant the IC50 on a negative log10 scale, so that one unit is a factor of ten. Low values mean a high IC50, high ones a low IC50. The inhibition is the relative decrease from the control value, in per cent. Compound `CC[C@@H](C)[C@H]1C(=O)N(C)[C@@H](Cc2ccccc2)C(=O)N[C@@H](C(C)C)C(=O)O[C@H](C)[C@H](NC(=O)[C@H](CCC(N)=O)NC(=O)[C@H](O)Cc2ccc(O)cc2)C(=O)N[C@@H](Cc2ccc(O)cc2)C(=O)N[C@H]2CC[C@@H](O)N1C2=O` (relative stereo) had a negative logarithm of the IC50 (pIC50) in [1] of 6.59. Also, the inhibition result in [2], in [3] and in [4] was “inactive” each time.
As for `N=C(N)NCCCCNC(=O)[C@H]1C[C@H]2CC[C@@H](O)C[C@H]2N1C(=O)[C@@H](Cc1ccccc1)NC(=O)[C@@H](O)Cc1ccc(O)cc1`, the inhibition result in assay [4] and in [7] was “inactive” each time. For the same compound, the pIC50 in assay [5] was 5.72. In assay [6], the Activity was 30%.
With `CC(C)C[C@@H](NC(=O)[C@H](O)Cc1ccc(O)cc1)C(=O)N[C@@H](Cc1ccccc1)C(=O)NCCCCNC(=N)N`, the inhibition entry in [3], in assay [4] and in [7] was “inactive” in each case. The compound further had a negative logarithm of the IC50 (pIC50) in assay [5] of 4.34.
In turn, `N=C(N)NCCCCNC(=O)[C@H]1C[C@H]2CC[C@@H](O)C[C@H]2N1C(=O)[C@@H](Cc1ccccc1)NC(=O)[C@H](O)Cc1ccc(O)cc1` gave an inhibition in assay [3] of under 50%. Moreover, the inhibition result in assay [4] and in [7] was “inactive” in each case. The same compound showed a pIC50 in assay [5] of 5.89.
Take `CC(=O)O[C@@H]1CC[C@@H]2C[C@H](C(N)=O)N(C(=O)[C@@H](Cc3ccc(O)cc3)NC(=O)[C@@H](O)Cc3ccc(O)cc3)[C@@H]2C1`: the inhibition result in [3], in assay [4] and in assay [7] was “inactive” each time. In assay [5], this compound gave a pIC50 of 4.34.
As for `CC(OC(=O)C(CCCNC(=N)N)[N+](C)(C)C)C(OS(=O)(=O)[O-])c1ccc(OS(=O)(=O)O)c(COS(=O)(=O)O)c1` (stereo not drawn), the inhibition entry in assay [2], in assay [3] and in [8] was “inactive” in each case. For the same compound, the result in the assay on HCT-116 was inactive.
As for `CC(=O)O[C@H](Cc1ccc(O)cc1)C(=O)N[C@H](Cc1ccccc1)C(=O)N1[C@@H](C(=O)NCCCCNC(=N)N)C[C@H]2CC[C@@H](O)C[C@H]21`, the inhibition in assay [3] is under 50%. The inhibition result in assay [4] and in assay [7] was “inactive” throughout. Besides, the negative-log IC50 (pIC50) in assay [5] is 4.70.
